Experimental data published in PubChem BioAssay AID1963837 (Molecular Pharmacology Branch, DTP, NCI, 2024).

Tested on: 843126-344-R-J1-PDC complex spheroid viability
Assay: Anticancer human tumor 843126-344-R-J1-PDC patient-derived melanoma cell line growth inhibition [POLQ]
Conditions: for IC50: curve of first compound; for viability, T/C: stronger effect = lower value
Procedure, shortened: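 Patient-derived tumour cells were co-cultured with HUVEC and mesenchymal stem cells as multicellular spheroids at 37 °C. They were treated with POLQ inhibitors (novobiocin, ART-558, RP6685) alone or combined with other agents. Top concentrations were at or near clinical Cmax (otherwise 10 microM; SN-38 at 1 microM), decreasing in half-log steps.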

[1] = second compound 0.0316 µM, first compound 0.0316 µM
[2] = second compound 0.0316 µM, first compound 0.1 µM
[3] = second compound 0.1 µM, first compound 0.0316 µM
[4] = second compound 0.1 µM, first compound 0.1 µM
[5] = second compound 0.316 µM, first compound 0.0316 µM
[6] = second compound 0.316 µM, first compound 0.1 µM
[7] = second compound 1 µM, first compound 0.0316 µM
[8] = second compound 1 µM, first compound 0.1 µM
[9] = second compound 3.16 µM, first compound 0.0316 µM
[10] = second compound 3.16 µM, first compound 0.1 µM
[11] = second compound 10 µM, first compound 0.0316 µM
[12] = second compound 10 µM, first compound 0.1 µM
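For viability, T/C in this document: spheroids exposed to drugs for seven days before readout.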

For Cn1ncnc1[C@H]1c2n[nH]c(=O)c3cc(F)cc(c23)N[C@@H]1c1ccc(F)cc1 + COC1C(OC(N)=O)C(O)C(Oc2ccc3c(O)c(NC(=O)c4ccc(O)c(CC=C(C)C)c4)c(=O)oc3c2C)OC1(C)C, which IC50 (second compound 0.0316 µM) is on record?
Its IC50 is greater than 100 nM.

What about the IC50 (second compound 0.1 µM) of the same molecule?
Its IC50 is greater than 100 nM.

What about the IC50 (second compound 0.316 µM) of the same molecule?
The IC50 was greater than 100 nM.

And the IC50 (second compound 1 µM)?
Its IC50 is greater than 100 nM.

And the IC50 (second compound 3.16 µM)?
Its IC50 is greater than 100 nM.

And the IC50 (second compound 10 µM)?
The IC50 was greater than 100 nM.

And the viability, T/C (second compound 0.0316 µM, first compound 0.000316 µM)?
Its viability, T/C is 83.3%.

And the viability, T/C (second compound 0.0316 µM, first compound 0.001 µM)?
Its viability, T/C is 87.8%.

What about the viability, T/C (second compound 0.0316 µM, first compound 0.00316 µM) of the same molecule?
The viability, T/C was 108%.

What about the viability, T/C (second compound 0.0316 µM, first compound 0.01 µM) of the same molecule?
Its viability, T/C is 106%.

What about the viability, T/C [1] of the same molecule?
Its viability, T/C is 97.8%.

What about the viability, T/C [2] of the same molecule?
The viability, T/C was 76.5%.

And the viability, T/C (second compound 0.1 µM, first compound 0.000316 µM)?
Its viability, T/C is 96.7%.

What about the viability, T/C (second compound 0.1 µM, first compound 0.001 µM) of the same molecule?
Its viability, T/C is 103%.

What about the viability, T/C (second compound 0.1 µM, first compound 0.00316 µM) of the same molecule?
Its viability, T/C is 93.5%.

What about the viability, T/C (second compound 0.1 µM, first compound 0.01 µM) of the same molecule?
Its viability, T/C is 91.8%.

And the viability, T/C [3]?
The viability, T/C was 121%.

What about the viability, T/C [4] of the same molecule?
The viability, T/C was 87.2%.

What about the viability, T/C (second compound 0.316 µM, first compound 0.000316 µM) of the same molecule?
Its viability, T/C is 90.1%.

And the viability, T/C (second compound 0.316 µM, first compound 0.001 µM)?
Its viability, T/C is 109%.

And the viability, T/C (second compound 0.316 µM, first compound 0.00316 µM)?
Its viability, T/C is 81.2%.

What about the viability, T/C (second compound 0.316 µM, first compound 0.01 µM) of the same molecule?
The viability, T/C was 102%.

What about the viability, T/C [5] of the same molecule?
The viability, T/C was 90.3%.

What about the viability, T/C [6] of the same molecule?
Its viability, T/C is 94.2%.

What about the viability, T/C (second compound 1 µM, first compound 0.000316 µM) of the same molecule?
Its viability, T/C is 89.7%.

And the viability, T/C (second compound 1 µM, first compound 0.001 µM)?
Its viability, T/C is 106%.

What about the viability, T/C (second compound 1 µM, first compound 0.00316 µM) of the same molecule?
The viability, T/C was 105%.

And the viability, T/C (second compound 1 µM, first compound 0.01 µM)?
Its viability, T/C is 84.3%.

What about the viability, T/C [7] of the same molecule?
The viability, T/C was 118%.

What about the viability, T/C [8] of the same molecule?
The viability, T/C was 76.1%.

What about the viability, T/C (second compound 3.16 µM, first compound 0.000316 µM) of the same molecule?
Its viability, T/C is 85.1%.

And the viability, T/C (second compound 3.16 µM, first compound 0.001 µM)?
The viability, T/C was 99.1%.

What about the viability, T/C (second compound 3.16 µM, first compound 0.00316 µM) of the same molecule?
The viability, T/C was 101%.

And the viability, T/C (second compound 3.16 µM, first compound 0.01 µM)?
The viability, T/C was 89.9%.

And the viability, T/C [9]?
The viability, T/C was 120%.

And the viability, T/C [10]?
The viability, T/C was 94.1%.

What about the viability, T/C (second compound 10 µM, first compound 0.000316 µM) of the same molecule?
The viability, T/C was 83.9%.

And the viability, T/C (second compound 10 µM, first compound 0.001 µM)?
Its viability, T/C is 102%.

And the viability, T/C (second compound 10 µM, first compound 0.00316 µM)?
Its viability, T/C is 101%.

What about the viability, T/C (second compound 10 µM, first compound 0.01 µM) of the same molecule?
Its viability, T/C is 86.9%.

And the viability, T/C [11]?
The viability, T/C was 80.9%.

And the viability, T/C [12]?
Its viability, T/C is 81.7%.

Which IC50 (second compound 0.0316 µM) does the source give for Nc1ccn(C2OC(CO)C(O)C2(F)F)c(=O)n1 (centres undefined) + Cc1cccc(N(C)C(=O)C2C(O)CCN2c2nc(C)cc(C(F)(F)F)c2C#N)c1 here?
Its IC50 is less than 31.6 nM.

What about the IC50 (second compound 0.1 µM) of the same molecule?
The IC50 was less than 31.6 nM.

What about the IC50 (second compound 0.316 µM) of the same molecule?
Its IC50 is less than 31.6 nM.

What about the IC50 (second compound 1 µM) of the same molecule?
The IC50 was less than 31.6 nM.

And the IC50 (second compound 3.16 µM)?
The IC50 was less than 31.6 nM.

And the IC50 (second compound 10 µM)?
The IC50 was less than 31.6 nM.

What about the viability, T/C [1] of the same molecule?
Its viability, T/C is 47.1%.

And the viability, T/C [2]?
The viability, T/C was 50.2%.

What about the viability, T/C (second compound 0.0316 µM, first compound 0.316 µM) of the same molecule?
Its viability, T/C is 30.6%.

And the viability, T/C (second compound 0.0316 µM, first compound 1 µM)?
Its viability, T/C is 45.5%.

And the viability, T/C (second compound 0.0316 µM, first compound 3.16 µM)?
Its viability, T/C is 42.4%.

And the viability, T/C (second compound 0.0316 µM, first compound 10 µM)?
Its viability, T/C is 43%.

What about the viability, T/C [3] of the same molecule?
The viability, T/C was 48.9%.

And the viability, T/C [4]?
The viability, T/C was 44%.

What about the viability, T/C (second compound 0.1 µM, first compound 0.316 µM) of the same molecule?
Its viability, T/C is 40.9%.

What about the viability, T/C (second compound 0.1 µM, first compound 1 µM) of the same molecule?
Its viability, T/C is 51.4%.

And the viability, T/C (second compound 0.1 µM, first compound 3.16 µM)?
The viability, T/C was 44.5%.

What about the viability, T/C (second compound 0.1 µM, first compound 10 µM) of the same molecule?
The viability, T/C was 32.9%.

And the viability, T/C [5]?
Its viability, T/C is 42.3%.

And the viability, T/C [6]?
The viability, T/C was 45.2%.

What about the viability, T/C (second compound 0.316 µM, first compound 0.316 µM) of the same molecule?
Its viability, T/C is 37.4%.

And the viability, T/C (second compound 0.316 µM, first compound 1 µM)?
Its viability, T/C is 44.8%.

What about the viability, T/C (second compound 0.316 µM, first compound 3.16 µM) of the same molecule?
Its viability, T/C is 43.2%.

What about the viability, T/C (second compound 0.316 µM, first compound 10 µM) of the same molecule?
The viability, T/C was 38.3%.

And the viability, T/C [7]?
Its viability, T/C is 37.9%.

And the viability, T/C [8]?
The viability, T/C was 44.5%.

What about the viability, T/C (second compound 1 µM, first compound 0.316 µM) of the same molecule?
Its viability, T/C is 37.6%.

And the viability, T/C (second compound 1 µM, first compound 1 µM)?
Its viability, T/C is 47.7%.

What about the viability, T/C (second compound 1 µM, first compound 3.16 µM) of the same molecule?
The viability, T/C was 35.9%.

What about the viability, T/C (second compound 1 µM, first compound 10 µM) of the same molecule?
The viability, T/C was 41.5%.

And the viability, T/C [9]?
Its viability, T/C is 38.7%.

And the viability, T/C [10]?
The viability, T/C was 43.6%.

And the viability, T/C (second compound 3.16 µM, first compound 0.316 µM)?
The viability, T/C was 44%.

What about the viability, T/C (second compound 3.16 µM, first compound 1 µM) of the same molecule?
Its viability, T/C is 49.3%.

What about the viability, T/C (second compound 3.16 µM, first compound 3.16 µM) of the same molecule?
Its viability, T/C is 34.9%.

What about the viability, T/C (second compound 3.16 µM, first compound 10 µM) of the same molecule?
Its viability, T/C is 36.6%.

And the viability, T/C [11]?
The viability, T/C was 40.6%.

And the viability, T/C [12]?
Its viability, T/C is 41.6%.

And the viability, T/C (second compound 10 µM, first compound 0.316 µM)?
The viability, T/C was 40.7%.

And the viability, T/C (second compound 10 µM, first compound 1 µM)?
The viability, T/C was 45.1%.

And the viability, T/C (second compound 10 µM, first compound 3.16 µM)?
Its viability, T/C is 43.5%.

What about the viability, T/C (second compound 10 µM, first compound 10 µM) of the same molecule?
Its viability, T/C is 37.8%.
